In brackets after ≈: the same amount, converted by molar mass.

For orientation: solubility means the concentration that dissolves in the medium under given conditions.

The data set can be described thus: Solubility (maximum soluble amount) in acetonitrile solution including 0.1 M TBAPF6. The format is physicochemical. The note with it: for solubility: acetonitrile solution including 0.1 M TBAPF6, organic solvent or mixture, maximum soluble amount in acetonitrile solution including TBAPF6 at 0.1 M. As for the experimental part: Each of the phenazine-based compounds provided according to Example 1 and Comparative Example 1 was dissolved in an acetonitrile solution including TBAPF6 at a concentration of 0.1 M, and the maximum soluble amounts of the phenazine-based compounds were identified, and the results are shown in the following Table 1.

For `CN1c2ccccc2N(C)c2ccccc21` [Comparative Example 1, 5,10-dimethyl-5,10-dihydrophenazine, reference compound], the solubility came out at 50 mM (≈ 10.5 mg/mL).
Take `COCCN1c2ccccc2N(CCOC)c2ccccc21` [Example 1, 5,10-bis(2-methoxyethyl)-5,10-dihydrophenazine]: the solubility was found to be 500 mM (≈ 149 mg/mL). Moreover, the “fold higher solubility in a non-aqueous solvent than DMPZ” value (non-aqueous solvent, relative to DMPZ) is “at least 10 fold”.

The record behind these values is patent publication US20220048869A1, “PHENAZINE-BASED COMPOUND, ELECTROLYTIC LIQUID COMPRISING SAME FOR REDOX FLOW BATTERY, AND REDOX FLOW BATTERY” (LOTTE CHEMICAL CORPORATION, priority 2018, published 2022).
